According to patent publication US9328099B2, “Cyanomethylpyrazole carboxamides as janus kinase inhibitors” (Merck Sharp & Dohme Corp., priority 2011, dated 2016):
Like-named read-outs stand apart in the source and are kept apart here.

How the values were obtained:
JAK1 = JAK1 (Homo sapiens (Human), UniProt P23458); experiment: Jak Biochemical HTRF Assay, JAK1; conditions: read-out: JAK1 IC50
Text: (§1) Jak Biochemical HTRF Assay Protocol
(§2) Subsequent reagent additions employed an Agilent Bravo.

JAK2 = JAK2 (Homo sapiens (Human), UniProt O60674); experiment: Jak Biochemical HTRF Assay, JAK2
JAK2, sequence (O60674 849-1124): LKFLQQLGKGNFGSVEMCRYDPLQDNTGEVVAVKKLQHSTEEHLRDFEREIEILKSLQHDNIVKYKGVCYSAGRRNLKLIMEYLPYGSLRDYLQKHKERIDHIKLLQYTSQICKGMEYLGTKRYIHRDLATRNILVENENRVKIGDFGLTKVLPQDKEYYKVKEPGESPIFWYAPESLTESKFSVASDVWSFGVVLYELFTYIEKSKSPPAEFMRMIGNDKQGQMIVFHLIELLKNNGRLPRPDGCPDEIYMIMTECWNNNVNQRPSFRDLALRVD
Text: as §1, §2

[1] = HTRF biochemical assay, GST-tagged catalytic domain, top concentration tested […]

JAK1, sequence (P23458 875-1153): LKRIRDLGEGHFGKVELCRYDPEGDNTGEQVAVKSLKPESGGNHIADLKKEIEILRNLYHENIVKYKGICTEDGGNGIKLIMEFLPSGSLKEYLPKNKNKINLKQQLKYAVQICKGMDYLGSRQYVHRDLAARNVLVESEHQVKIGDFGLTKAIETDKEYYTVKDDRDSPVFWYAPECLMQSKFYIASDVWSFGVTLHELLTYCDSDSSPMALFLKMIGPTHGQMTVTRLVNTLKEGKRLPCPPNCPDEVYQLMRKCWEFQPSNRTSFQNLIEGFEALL

SMILES	IC50 (JAK1; [1]) [nM]	IC50 (JAK2; [1]) [nM]	IC50 (JAK1) [nM]	IC50 (JAK2) [nM]
N#CCC1(n2cc(C(N)=O)c(Nc3ccc(F)cc3)n2)CCN(C(=O)OCC2CCC2)CC1 [Example 30-5, cyclobutylmethyl 4-(4-carbamoyl-3-(4-fluorophenylamino)-1H-pyrazol-1-yl)-4-(cyanomethyl)piperidine-1-carboxylate]	4	120		
N#CCC1(n2cc(C(N)=O)c(Nc3ccc(F)cc3)n2)CCN(C(=O)OCC2CC2(F)F)CC1 (stereo not drawn) [Example 30-6, (2,2-difluorocyclopropyl)methyl 4-(4-carbamoyl-3-(4-fluorophenylamino)-1H-pyrazol-1-yl)-4-(cyanomethyl)piperidine-1-carboxylate]	0.9	38		
N#CCC1(n2cc(C(N)=O)c(Nc3ccc(F)cc3)n2)CCN(C(=O)OCC(F)F)CC1 [Example 30-7, 2,2-difluoroethyl 4-(4-carbamoyl-3-(4-fluorophenylamino)-1H-pyrazol-1-yl)-4-(cyanomethyl)piperidine-1-carboxylate]	0.5	9		
CC1(COC(=O)N2CCC(CC#N)(n3cc(C(N)=O)c(Nc4ccc(F)cc4)n3)CC2)CC1 [Example 30-8, (1-methylcyclopropyl)methyl 4-(4-carbamoyl-3-(4-fluorophenylamino)-1H-pyrazol-1-yl)-4-(cyanomethyl)piperidine-1-carboxylate]	1	72		
N#CCC1(n2cc(C(N)=O)c(Nc3ccc(F)cc3)n2)CCN(C(=O)OC(CF)CF)CC1 [Example 30-9, 1,3-difluoropropan-2-yl 4-(4-carbamoyl-3-(4-fluorophenylamino)-1H-pyrazol-1-yl)-4-(cyanomethyl)piperidine-1-carboxylate]	0.3	5		
C[Si](C)(C)COC(=O)N1CCC(CC#N)(n2cc(C(N)=O)c(Nc3ccc(F)cc3)n2)CC1 [Example 30-10, (trimethylsilyl)methyl 4-(4-carbamoyl-3-(4-fluorophenylamino)-1H-pyrazol-1-yl)-4-(cyanomethyl)piperidine-1-carboxylate]			21	745
N#CCC1(n2cc(C(N)=O)c(Nc3ccc(F)cc3)n2)CCN(C(=O)OCC(F)(F)CO)CC1 [Example 30-11, 2,2-difluoro-3-hydroxypropyl 4-(4-carbamoyl-3-(4-fluorophenylamino)-1H-pyrazol-1-yl)-4-(cyanomethyl)piperidine-1-carboxylate]	0.2	11		
N#CCC1(n2cc(C(N)=O)c(Nc3ccc(F)cc3)n2)CCN(C(=O)OCC2(O)CC2)CC1 [Example 30-13, (1-hydroxycyclopropyl)methyl 4-(4-carbamoyl-3-(4-fluorophenylamino)-1H-pyrazol-1-yl)-4-(cyanomethyl)piperidine-1-carboxylate]	0.9	20		
C[C@@H](OC(=O)N1CCC(CC#N)(n2cc(C(N)=O)c(Nc3ccc(F)cc3)n2)CC1)C(F)(F)F [Example 30-14, (R)-1,1,1-trifluoropropan-2-yl 4-(4-carbamoyl-3-(4-fluorophenylamino)-1H-pyrazol-1-yl)-4-(cyanomethyl)piperidine-1-carboxylate]	2	30		
N#CCC1(n2cc(C(N)=O)c(Nc3cncc(F)c3)n2)CCN(C(=O)OCC(F)F)CC1 [Example 30-15, 2,2-difluoroethyl 4-(4-carbamoyl-3-(5-fluoropyridin-3-ylamino)-1H-pyrazol-1-yl)-4-(cyanomethyl)piperidine-1-carboxylate]	1	19		
N#CCC1(n2cc(C(N)=O)c(Nc3ccnc(F)c3)n2)CCN(C(=O)OC2CCOCC2)CC1 [Example 30-17, tetrahydro-2H-pyran-4-yl 4-{4-carbamoyl-3-[(2-fluoropyridin-4-yl)amino]-1H-pyrazol-1-yl}-4-(cyanomethyl)piperidine-1-carboxylate]	3	96		
N#CCC1(n2cc(C(N)=O)c(Nc3ccc(F)cc3)n2)CCN(C(=O)OC2COC2)CC1 [Example 30-18, oxetan-3-yl 4-{4-carbamoyl-3-[(4-fluorophenyl)amino]-1H-pyrazol-1-yl}-4-(cyanomethyl)piperidine-1-carboxylate]	2	44		
N#CCC1(n2cc(C(N)=O)c(Nc3ccc(F)cc3)n2)CCN(C(=O)OCC2CC2)CC1 [Example 30-19, cyclopropylmethyl 4-{4-carbamoyl-3-[(4-fluorophenyl)amino]-1H-pyrazol-1-yl}-4-(cyanomethyl)piperidine-1-carboxylate]	1	37		
CC1(COC(=O)N2CCC(CC#N)(n3cc(C(N)=O)c(Nc4ccc(F)cc4)n3)CC2)COC1 [Example 30-20, (3-methyloxetan-3-yl)methyl 4-{4-carbamoyl-3-[(4-fluorophenyl)amino]-1H-pyrazol-1-yl}-4-(cyanomethyl)piperidine-1-carboxylate]	8	240		
N#CCC1(n2cc(C(N)=O)c(Nc3ccc(F)cc3)n2)CCN(C(=O)OCC2CCOCC2)CC1 [Example 30-21, tetrahydro-2H-pyran-4-ylmethyl 4-{4-carbamoyl-3-[(4-fluorophenyl)amino]-1H-pyrazol-1-yl}-4-(cyanomethyl)piperidine-1-carboxylate]	6	145		
N#CCC1(n2cc(C(N)=O)c(Nc3ccc(F)cc3)n2)CCN(C(=O)OCC2CCOC2)CC1 (stereo not drawn) [Example 30-22, tetrahydrofuran-3-ylmethyl 4-{4-carbamoyl-3-[(4-fluorophenyl)amino]-1H-pyrazol-1-yl}-4-(cyanomethyl)piperidine-1-carboxylate]	5	123		
COCC(C)OC(=O)N1CCC(CC#N)(n2cc(C(N)=O)c(Nc3ccc(F)cc3)n2)CC1 (stereo not drawn) [Example 30-23, 1-methoxypropan-2-yl 4-{4-carbamoyl-3-[(4-fluorophenyl)amino]-1H-pyrazol-1-yl}-4-(cyanomethyl)piperidine-1-carboxylate]	2	40		
COC(C)COC(=O)N1CCC(CC#N)(n2cc(C(N)=O)c(Nc3ccc(F)cc3)n2)CC1 (stereo not drawn) [Example 30-24, 2-methoxypropyl 4-{4-carbamoyl-3-[(4-fluorophenyl)amino]-1H-pyrazol-1-yl}-4-(cyanomethyl)piperidine-1-carboxylate]	4	96		
N#CCC1(n2cc(C(N)=O)c(Nc3ccc(F)cc3)n2)CCN(C(=O)OC2CCCOC2)CC1 (stereo not drawn) [Example 30-25, tetrahydro-2H-pyran-3-yl 4-{4-carbamoyl-3-[(4-fluorophenyl)amino]-1H-pyrazol-1-yl}-4-(cyanomethyl)piperidine-1-carboxylate]	4	120		
N#CCC1(n2cc(C(N)=O)c(Nc3ccnc(F)c3)n2)CCN(C(=O)OCC(F)F)CC1 [Example 30-27, 2,2-difluoroethyl 4-(4-carbamoyl-3-(2-fluoropyridin-4-ylamino)-1H-pyrazol-1-yl)-4-(cyanomethyl)piperidine-1-carboxylate]	0.07	5		
CC(C)COC(=O)N1CCC(CC#N)(n2cc(C(N)=O)c(Nc3ccccc3)n2)CC1 [Example 30-28, 2-methylpropyl 4-[4-carbamoyl-3-(phenylamino)-1H-pyrazol-1-yl]-4-(cyanomethyl)piperidine-1-carboxylate]	3	102		
